The text below walks through data of patent US20250213478A1, “CATIONIC LIPID HAVING DISULFIDE BOND, LIPID MEMBRANE STRUCTURE INCLUDING SAME, NUCLEIC ACID INTRODUCTION AGENT AND PHARMACEUTICAL COMPOSITION CONTAINING ANY ONE OF SAME, METHOD FOR INTRODUCING NUCLEIC ACID INTO CELL OR TARGET CELL, AND METHOD FOR PRODUCING CELLULAR PHARMACEUTICAL” (NOF Corporation, priority 2022, published 2025).

In one data set the test system is HeLa cells. The data set can be described thus: Evaluation of in vitro gene expression in HeLa cell (luciferase mRNA-encapsulating LNP). The class given is cell-based, human. To be noted: for cumulative luciferase luminescence intensity over 24 hr: luciferase mRNA 0.4 μg per dish, LNP cationic lipid:DOPC:Chol:DMG-PEG2k=55:5:40:1; for gene expression activity compared to Comparative Example: result in words. The protocol:
(§1) LNP encapsulating mRNA that expresses luciferase (cationic lipid:DOPC:Chol:DMG-PEG2k=55:5:40:1 (molar ratio)) was prepared by the method described in [Experimental Example 2], 1.
HeLa cells, which are human cervical cancer cells, were seeded in a 3.5 cm dish at 5.0×10^4 cells/2 mL/Dish 24 hours before transfection. After 24 hours, the medium was exchanged with a culture medium (D-MEM) containing 0.1 mM D-luciferin. Prepared mRNA-encapsulating LNP was diluted with PBS such that the concentration of mRNA was about 8 μg/mL. The diluted mRNA-encapsulating LNP solution (about 50 μL, mRNA: 0.4 μg) was added to the 3.5 cm dish and set in an incubator luminometer KronosDio. The luminescence intensity of luciferase was measured for 2 min every one hour. The cumulative luciferase luminescence intensity for 24 hr was calculated from the obtained time change of expression. For example, “1.0E+06” means “1.0×10^6”. In Comparative Example, the cationic lipid described in the aforementioned Table 3 were used.

A short description of data set [1]: Particle size, PdI and zeta potential of mRNA-encapsulating LNPs (dynamic light scattering). It counts as physicochemical. To be noted: mRNA-encapsulating LNP, cationic lipid:DOPC:Chol=55:5:40 + about 1 mol DMG-PEG2k; for PdI / particle size: dynamic light scattering; for zeta potential: physiological pH. The procedure: A 10 mM ethanol solution of cationic lipid, a 5 mM ethanol solution of DOPC, and a 10 mM ethanol solution of Chol were mixed at desired ratio (cationic lipid:DOPC:Chol=55:5:40 (molar ratio)) in an Eppendorf tube to achieve the total lipid amount of 720 nmol. To the obtained mixture was further added DMG-PEG2k (2 mM ethanol solution) in an amount of about 1 mol with respect to the total amount 100 mol of cationic lipid, DOPC, and Chol, and then ethanol was added to prepare an ethanol solution of the lipid (total amount: 360 μL).
An acidic buffer solution (total amount: 1080 μL) of nucleic acid was prepared by weighing 7.2 μg of mRNA solution (0.6 mg/mL) in a 5 mL tube and adding acidic malate buffer (20 mM, pH 3.0) containing NaCl at a final concentration of 30 mM.
An acidic buffer solution of nucleic acid and an ethanol solution of lipid were each weighed in a syringe. Using an ultra high-speed nanomedicament producing apparatus NanoAssmblr (manufactured by Precision NanoSystems), LNP was prepared under the conditions of addition rate of acidic buffer solution of nucleic acid: 3 mL/min, addition rate of ethanol solution of lipid: 1 mL/min, and syringe holder temperature: 25° C., and collected in a 15 mL tube. MES buffer (pH 6.5) (3000 μL) was added to the 15 mL tube, the obtained mixture was transferred to Amicon Ultra 4, and ultrafiltration was performed under centrifugation conditions (25° C., 1000 g, 6 min) to concentrate the mixture to about 100 μL. The obtained concentrate was diluted with PBS to 4 mL, and the mixture was concentrated again under centrifugation conditions (25° C., 1000 g, 6 min), and this operation was performed twice. The obtained concentrate was diluted with PBS to a lipid concentration of 2 mM to give a dispersion containing LNP.
The particle size, PdI (Polydispersity Index), and zeta potential of the mRNA-encapsulating LNP prepared by the method of the above-mentioned 1 were measured by a dynamic light scattering method. In Comparative Example, the cationic lipid described in the aforementioned Table 3 were used.

Another data set relates to BALB/c mouse. The data set can be described thus: Evaluation of in vivo gene expression (luciferase mRNA-encapsulating LNP, IVIS of isolated organs). The protocol: as §1
The prepared each mRNA-encapsulating LNP dispersion was administered from the tail vein of BALB/c mouse (male, 5-week-old). The dose of mRNA was set to 0.05 mg per 1 kg body weight of the mouse, and the dose of the mRNA-encapsulating LNP dispersion was set to 10 μL per 1 g body weight of the mouse. After 4.5 hr from the administration of the mRNA-encapsulating LNP dispersion, a PBS solution of D-luciferin potassium was administered into the abdominal cavity of the mouse. The dose of D-luciferin potassium was set to 3 mg per mouse, and the dose of the PBS solution of D-luciferin potassium was set to 200 μL per mouse. After 15 min from the administration of the PBS solution of D-luciferin potassium, the mouse was euthanized, and the liver, spleen, kidney, heart, and lung were isolated. The luminescence in each organ was quantified using an in vivo imaging system (IVIS) with an exposure of 10 sec. The amount of luminescence in each organ was quantified by image analysis using Live Imaging software attached to IVIS. The amount of luminescence (photons/sec) was calculated from the acquired image and used as an index of gene expression activity. “E+0a” (a: integer) indicated in Table 7 and Table 8 means “10^a”. For example, “1.0E+02” means “1.0×10^2”. In Comparative Example, the cationic lipid described in the aforementioned Table 3 were used.

Data set [2] can be described thus: Measurement of Liposomal pKa of LNP (TNS fluorescence). The class given is physicochemical. To be noted: LNP without nucleic acid, cationic lipid:DOPC:Chol=52.5:7.5:40 + about 1.5 mol DMG-PEG2k; pH at which relative TNS fluorescence intensity was 50%. The protocol:
Lipid nanoparticles (LNP) without containing nucleic acid were used for the evaluation of Liposomal pKa.
A 10 mM ethanol solution of cationic lipid, a 5 mM ethanol solution of DOPC, and a 10 mM ethanol solution of Chol were mixed at desired ratio (cationic lipid:DOPC:Chol=52.5:7.5:40 (molar ratio)) in an Eppendorf tube to achieve the total lipid amount of 720 nmol. To the obtained mixture was further added DMG-PEG2k (2 mM ethanol solution) in an amount of about 1.5 mol with respect to the total amount 100 mol of cationic lipid, DOPC, and Chol, and then ethanol was added to prepare an ethanol solution of the lipid (total amount: 360 μL).
An acidic malic acid buffer (20 mM, pH 3.0) (1080 μL) containing NaCl at a final concentration of 30 mM and an ethanol solution (360 μL) of lipid were each weighed in a syringe. Using an ultra high-speed nanomedicament producing apparatus NanoAssmblr (manufactured by Precision NanoSystems), LNP was prepared under the conditions of addition rate of acidic buffer solution: 3 mL/min, addition rate of ethanol solution of lipid: 1 mL/min, and syringe holder temperature: 25° C., and collected in a 15 mL tube. MES buffer (pH 6.5) (3000 μL) was added to the 15 mL tube, the obtained mixture was transferred to Amicon Ultra 4, and ultrafiltration was performed under centrifugation conditions (25° C., 1000 g, 6 min) to concentrate the mixture to about 100 μL. The obtained concentrate was diluted with PBS to 4 mL, and the mixture was concentrated again under centrifugation conditions (25° C., 1000 g, 6 min), and this operation was performed twice. The obtained concentrate was diluted with PBS to a lipid concentration of 0.5 mM to give a dispersion containing LNP.
20 mM Citrate buffer, sodium phosphate buffer, and tris HCl buffer, each containing NaCl at a final concentration of 150 mM and adjusted to various pHs within the range of pH 3.0 to 10.0, were prepared. TNS (manufactured by Sigma) was diluted with ultrapure water to 0.6 mM. TNS solution (2 μL), dispersions (12 μL) containing LNP prepared in [Experimental Example 1], 1., and buffers adjusted to various pHs (186 μL) were added to a black 96 well plate. The plate was protected from light and shaken at 400 rpm for 10 min. The fluorescence intensity (excitation: 321 nm/emission: 447 nm) was measured using a plate reader (manufactured by TECAN). The relative fluorescence intensity was calculated as a percentage, with the maximum value of the fluorescence intensity in each LNP being 100% and the minimum value being 0%. Furthermore, the pH at which the relative fluorescence intensity was 50% was taken as Liposomal pKa. In Comparative Example, the cationic lipid described in the aforementioned Table 3 were used.

As usually defined, the pKa is the negative logarithm of the acid dissociation constant. On to `CCCCCCCC/C=C\CCCCCCCC(=O)Oc1ccc(CC(=O)OCCC2CCN(CCSSCCN3CCC(CCOC(=O)Cc4ccc(OC(=O)CCCCCCC/C=C\CCCCCCCC)cc4)CC3)CC2)cc1` [Comparative Example, O-Ph-P4C2, reference compound], for which the “cumulative luciferase luminescence intensity over 24 hr” value in the data set on HeLa cells is given as 1.11E+07 RLU. In addition, in data set [1], the PdI was found to be 0.064, the particle size was found to be 73 nm and the zeta potential is given as −1.5 mV. Also, in the data set on BALB/c mouse (spleen, relative to O-Ph-P4C2 LNP = 1.00), the “relative value based on Comparative Example (amount of luminescence in spleen)” value was 1.00. Further, the “amount of luminescence in spleen” value in the data set on BALB/c mouse (tail vein, mRNA 0.05 mg/kg, spleen (Table 8)) worked out at 1.08E+07 photons/sec. The pKa in data set [2] was 6.3.

For the compound `CCCCCCCCCCCCCCCCCCC(CCCCCCCCCCCCCCCCCC)C(=O)Oc1ccc(CC(=O)OCCSSCCOC(=O)CCCN(C)C)cc1` [Example 9], in the data set on HeLa cells, the “cumulative luciferase luminescence intensity over 24 hr” value was determined as 1.25E+08 RLU and the “gene expression activity compared to Comparative Example” value is reported as “superior gene expression activity”. For the same compound, in data set [1], the PdI came to 0.168, the particle size worked out at 96 nm and the zeta potential amounted to 12.1 mV. In addition, in data set [2], the pKa stood at 7.8.

In the case of `CCCCCCCCCCCCCCCCC(CCCCCCCCCCCCCCCC)C(=O)Oc1ccc(CC(=O)OCCSSCCOC(=O)CCCN(CC)CC)cc1` [Example 10], in the data set with HeLa cells, the “cumulative luciferase luminescence intensity over 24 hr” value was 1.90E+08 RLU and the “gene expression activity compared to Comparative Example” value is listed as “superior gene expression activity”. Also, in data set [1], the PdI worked out at 0.077, the particle size is listed as 80 nm and the zeta potential was 4.9 mV. Moreover, in data set [2], the pKa was determined as 7.4.

For the compound `CCCCCCCCCCCCCCCCC(CCCCCCCCCCCCCCCC)C(=O)Oc1ccc(CC(=O)OCCSSCCOC(=O)CCCN2CCCCC2)cc1` [Example 11], in the data set on HeLa cells, the “cumulative luciferase luminescence intensity over 24 hr” value is on record as 6.71E+07 RLU and the “gene expression activity compared to Comparative Example” value is “superior gene expression activity”. For the same compound, in data set [1], the PdI is 0.079, the particle size is 86 nm and the zeta potential is −0.9 mV. The pKa in data set [2] stood at 7.

`CCCCCCCCCCCCCCCCC(CCCCCCCCCCCCCCCC)C(=O)Oc1ccc(CC(=O)OCCSSCCOC(=O)CCCN(CCC)CCC)cc1` [Example 12]: the “cumulative luciferase luminescence intensity over 24 hr” value in the data set on HeLa cells stood at 1.13E+05 RLU. Also, in data set [1], the PdI is 0.071, the particle size was determined as 84 nm and the zeta potential is −4.4 mV. The pKa in data set [2] turned out to be 6.2.

For the compound `CCCCCCCC/C=C\CCCCCCCC(=O)Oc1ccc(CC(=O)OCCSSCCOC(=O)CCCN(C)C)cc1OC(=O)CCCCCCC/C=C\CCCCCCCC` [Example 15], in the data set with HeLa cells, the “cumulative luciferase luminescence intensity over 24 hr” value was 8.22E+07 RLU and the “gene expression activity compared to Comparative Example” value is given as “superior gene expression activity”. For the same compound, in data set [1], the PdI turned out to be 0.112, the particle size came to 65 nm and the zeta potential came out at 6.0 mV. Also, the pKa in data set [2] amounted to 6.3.

Turning to `CCCCCCCCCCCCCCCCC(CCCCCCCCCCCCCCCC)C(=O)Oc1ccc(CC(=O)OCCSSCCN(CC)CC)cc1` [Example 17], the “cumulative luciferase luminescence intensity over 24 hr” value in the data set on HeLa cells is recorded as 8.39E+04 RLU. Also, in data set [1], the PdI came to 0.064, the particle size amounted to 105 nm and the zeta potential is −2.6 mV. Further, the pKa in data set [2] amounted to 6.2.

Regarding `CCCCCCCCCCCCCCCCC(CCCCCCCCCCCCCCCC)C(=O)Oc1ccc(CC(=O)NCCSSCCNC(=O)CN(C)C)cc1` [Example 18], the “cumulative luciferase luminescence intensity over 24 hr” value with HeLa cells came to 3.99E+06 RLU. In addition, in data set [1], the PdI came out at 0.132, the particle size is recorded as 105 nm and the zeta potential came out at 5.3 mV. Also, the pKa in data set [2] is 6.8.

As to `CCCCCCCCCCCCCCCCC(CCCCCCCCCCCCCCCC)C(=O)Oc1ccc(CC(=O)NCCSSCCNC(=O)CCN(C)C)cc1` [Example 19], in the data set on HeLa cells, the “cumulative luciferase luminescence intensity over 24 hr” value is on record as 2.55E+07 RLU and the “gene expression activity compared to Comparative Example” value is recorded as “superior gene expression activity”. In data set [1], the PdI was 0.121, the particle size is 73 nm and the zeta potential is given as 13.1 mV. Also, in data set [2], the pKa was 8.2.
